From ChEMBL document CHEMBL1201862, “PubChem BioAssay data set” (2004)
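Method: 48-hour compound exposure of cells in 96-well plates, five concentrations, linear interpolation of endpoints. GI50: concentration for 50% inhibition of growth.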 Active and inactive are the calls of the source. Cut-off read from the data, not from the text of the source: active = GI50 up to about 1.1 µM and inactive = higher.

Experiments:
Assay in all cases: NCI tumour cell line growth inhibition, 48 h
[1] = test system: LXFL 529
[2] = test system: DMS-114
[3] = test system: DLD-1
[4] = test system: M19-MEL
[5] = test system: HOP-18
[6] = test system: DMS-273
[7] = test system: XF498
[8] = test system: RXF 631
[9] = test system: SNB-78

Measured: GI50

CC(=O)O.CN1CCN(CN2C(=O)C3C4C=CC(C3C2=O)C2C3C(=O)N(CN5CCN(C)CC5)C(=O)C3C42)CC1 (stereo not given)
inactive: [1] 18.1 µM | [2] 20.1 µM | [3] 19.1 µM

COc1ccc(S(=O)(=O)N(C)CC(=O)O)cc1
inactive: [4] > 100 µM | [5] > 100 µM | [6] > 100 µM | [7] > 100 µM | [1] > 100 µM | [3] > 100 µM | [8] > 100 µM

Cc1ccc(C(=O)/C=C/c2ccccc2O)c(C)c1
inactive: [4] 1.35 µM | [6] > 100 µM | [1] > 100 µM | [9] > 100 µM | [2] > 100 µM | [3] > 100 µM

COc1ccccc1/C=N/N=C(\N)NO
inactive: [4] 19.8 µM | [5] 48.9 µM | [1] 3.3 µM | [9] > 100 µM | [2] 5.78 µM | [3] 23.8 µM

O=C1Nc2ccccc2C1(O)C/C(=N/O)c1ccc2ccccc2c1 (stereo not given)
inactive: [4] 45.5 µM | [5] > 100 µM | [7] 93.3 µM | [1] 91.2 µM | [9] 60.1 µM | [2] 64.6 µM | [3] > 100 µM | [8] 29.7 µM

CN(c1ccccc1)C(c1ccccc1)C(O)c1ccccc1 (stereo not given)
inactive: [4] 23.1 µM | [5] 14.9 µM | [6] 18.7 µM | [1] 21 µM | [9] 22.6 µM | [2] 20.9 µM | [3] 23.9 µM | [8] 18.8 µM

Cc1cc(NC(=O)C2C3C=CC(O3)C2C(=O)O)no1 (stereo not given)
inactive: [4] 28.1 µM | [5] > 100 µM | [6] 16.8 µM | [7] > 100 µM | [1] 20.4 µM | [9] > 100 µM | [2] 15.7 µM | [3] 24 µM | [8] 80.5 µM

Cc1ccc(S(=O)(=O)OC2CC=CC2)cc1
inactive: [4] > 100 µM | [5] > 100 µM | [6] > 100 µM | [7] > 100 µM | [1] > 100 µM | [9] > 100 µM | [2] > 100 µM | [3] > 100 µM

CCOC(=O)C(C)(NC(=O)c1ccc(NCc2ccc3nc(NC(=O)c4ccccc4)nc(NC(=O)c4ccccc4)c3c2)cc1)C(=O)OCC
inactive: [4] 8.93 µM | [5] 37.8 µM | [6] 9.23 µM | [9] 9.23 µM | [2] 16.8 µM | [3] 15.6 µM | [8] 12.2 µM

CC(C)c1cc2c(O)c(c1)Cc1cc(C(C)C)cc(c1O)Cc1cc(C(C)C)cc(c1O)Cc1cc(C(C)C)cc(c1O)C2
inactive: [4] > 100 µM | [5] > 100 µM | [6] > 100 µM | [7] > 100 µM | [9] > 100 µM | [2] > 100 µM | [3] > 100 µM

O=C1NC(=O)C(CCC(=O)c2ccc3ccccc3c2)C(=O)N1
inactive: [4] > 100 µM | [5] > 100 µM | [6] > 100 µM | [7] > 100 µM | [1] > 100 µM | [9] > 100 µM | [2] > 100 µM | [3] > 100 µM | [8] > 100 µM

C=CCC1(C(=O)OC(C)(C)C)C(OC)=C(C(=O)OC(C)(C)C)C2C1C(C(=O)OC(C)(C)C)=C(OC)C2(CC=C)C(=O)OC(C)(C)C (stereo not given)
inactive: [4] > 100 µM | [5] > 100 µM | [7] > 100 µM | [2] > 100 µM | [3] > 100 µM

CC(=O)NNc1nc(C)c(C(=O)NNC(=O)C(=O)Nc2c([N+](=O)[O-])ccc(C)c2C)s1
inactive: [4] > 100 µM | [6] > 100 µM | [7] > 100 µM | [1] 65.2 µM | [9] > 100 µM | [2] > 100 µM | [3] > 100 µM

COc1cc(C2C(C(=O)O)=C(C)Oc3cc4c(cc32)OCO4)cc(OC)c1OC (stereo not given)
inactive: [4] 30.8 µM | [5] 28.8 µM | [6] 13.7 µM | [7] 42.2 µM | [9] 50.4 µM | [2] 16.2 µM | [3] 29 µM | [8] 36.1 µM

CC(O)CN1C(=O)NC(Cc2ccccc2)C1=O (stereo not given)
inactive: [5] > 100 µM | [6] > 100 µM | [7] > 100 µM | [1] > 100 µM | [9] > 100 µM | [2] > 100 µM | [3] > 100 µM
